Assay results as given in patent publication US8497299B2, “Compositions including quinonoid derivatives of cannabinoids for therapeutic use” (Yissum Research Development Company of The Hebrew …, priority 2004, dated 2013).
Several values for one entry are separate records, joined by “and”; a condition that tells them apart may be missing. Equal values may be shown once.

What was measured:
[1] = test system: Jurkat (human T-cell lymphoma); assay: MTT cell proliferation test, Jurkat cells; type: cell-based
Protocol: (§1) Aliquots (200 μL) of suspensions of cancer cells were dispensed into wells of 96-well tissue culture plates at densities of 0.02×10^6 cells/well. Various concentrations of cannabinoic quinones were introduced into the wells, and their efficacy was tested three days after initiation of the cultures, using the 3-(4,5-dimethylthiazol-2-yl)-2,5-diphenyltetrazolium bromide (MTT) assay. The principle of this assay is that cells which survive following exposure to various compounds can reduce MTT to a dark-colored formazan, while dead cells are incapable of doing so. […] In each MTT assay every concentration of the cytotoxic substance was tested in five replicates in microplate wells. Assays with every cell line were carried out in two to three repeated experiments. The inhibitory effect of various compounds was calculated as percentage inhibition in comparison with the values obtained in untreated wells to which vehicle (ethanol 0.5%) was added.

[2] = test system: MCF-7 (breast cancer); assay: MTT cell proliferation test, MCF-7 cells; type: cell-based, human
Protocol: (§2) Raji and Jurkat cells were suspended in RPMI 1640 medium, supplemented with 20% heat-inactivated fetal calf serum (H-I FCS), 2 mM L-glutamine, 100 U/mL penicillin, and 0.01 mg/mL streptomycin at 37° C. in a 5% CO2 humidified atmosphere. Other cell lines were suspended in RPMI 1640 medium, supplemented with 10% H-I FCS, 2 mM L-glutamine, 100 U/mL penicillin, and 0.01 mg/mL streptomycin at 37° C. in a 5% CO2 humidified atmosphere.
(§3) Aliquots (200 μL) of suspensions of cancer cells were dispensed into wells of 96-well tissue culture plates at densities of 0.02×10^6 cells/well. Various concentrations of cannabinoic quinones were introduced into the wells, and their efficacy was tested three days after initiation of the cultures, using the 3-(4,5-dimethylthiazol-2-yl)-2,5-diphenyltetrazolium bromide (MTT) assay. The principle of this assay is that cells which survive following exposure to various compounds can reduce MTT to a dark-colored formazan, while dead cells are incapable of doing so. The assay was performed as described previously [Carmichael, J., et al. (1987) Cancer Res. 47, 936-42; Rubinstein, L. V. et al. (1990) J Natl Cancer Inst. 82, 1113-8; Rubnov, S. et al. (2001) J Nat Prod. 64, 993-6]. In each MTT assay every concentration of the cytotoxic substance was tested in five replicates in microplate wells. Assays with every cell line were carried out in two to three repeated experiments. The inhibitory effect of various compounds was calculated as percentage inhibition in comparison with the values obtained in untreated wells to which vehicle (ethanol 0.5%) was added.
(§4) The ability of cannabinoic quinones to inhibit cancer growth in vitro was verified on the following human cancer cell lines: Raji (Burkitt's lymphoma), Jurkat (human T-cell lymphoma), SNB-19 (glioblastoma), MCF-7 (breast cancer), DU-145 (prostate cancer), NCI-H-226 (lung cancer), and HT-29 (colon cancer) (see FIG. 5A-5E).

[3] = test system: human cancer cell lines (Raji, Jurkat, SNB-19, MCF-7, DU-145, NCI-H-226, HT-29); assay: MTT cell proliferation test, all cell lines tested; type: cell-based; settings: for growth inhibition of human cancer cell lines in vitro, in words: MTT; for concentration at which all cell lines tested were inhibited: all cell lines / cell types tested
Protocol: as §1

[4] = test system: Raji (Burkitt's lymphoma); assay: MTT cell proliferation test, Raji cells; type: cell-based, human
Protocol: as §1

[5] = test system: HT-29 colon cancer; assay: Growth of HT-29 colon cancer grafted s.c. in nude mice; type: in vivo
Protocol: Tumors were grafted into nude mice by s.c. flank inoculation of 0.2×10^6 HT-29 cells in RPMI 1640 medium without FCS. The animals were assigned randomly to various groups and injected via intraperitoneal (i.p.), intratumor or subcutaneous (s.c.) on day 2 or 14 after cells injection with vehicle (1:1:18 v/v ethanol:Emulphor®:PBS) or 5 mg/kg of HU-331. Tumors were measured with external caliper, and their area was calculated by multiplying the length by the width of the tumor.
(§5) A series of experiments were carried out to determine the capacity of HU-331 to inhibit the growth of human tumor cells in vivo. Nude mice received a subcutaneous (s.c.) injection of HT-29 human colon cancer cells. At various time intervals after the administration of the tumor cells the mice received i.p. or s.c. injections of HU-331 (2) at a dose of 5 mg/kg 3 times per week. This concentration paralleled the concentration of 5 μg/ml used in the in vitro experiments, which killed about 50% of HT-29 cancer cells.
Further, ten nude mice received a s.c. injection of HT-29 and were divided in two groups. Starting from day 2 after tumor injection, one group of mice received the i.p. injections of HU-331.
In another in vivo experiment, two groups of nude mice received an injection of HT-29 cancer cells subcutaneously in their backs. HU-331 (2) was injected subcutaneously at a concentration of 5 μg/ml (FIG. 6). In one group (Group 1), HU-331 was administrated intra-tumorally starting 14 days after the injection of tumor cells. In another group (Group 2), HU-331 was injected subcutaneously in the region where cancer cells had been injected, starting 2 days after the injection of tumor cells. […] In the mice that received HU-331 intra-tumorally starting 14 days after tumor implantation (Group 1), the anti-tumor effect of HU-331 took a longer time to be manifested.

[6] = Tolerability in treated nude mice (weight loss, adverse effects); type: in vivo; settings: 5 mg/kg
Protocol: as §5

[7] = test system: HT-29 (colon cancer); assay: MTT cell proliferation test, HT-29 cells; type: cell-based, human
Protocol: as §2, §3, §4

[8] = test system: SNB-19 (glioblastoma); assay: MTT cell proliferation test, SNB-19 cells; type: cell-based, human; settings: for susceptibility of the cell line to inhibition, in words: SNB-19, relative to the other cell lines
Protocol: as §1

[9] = test system: DU-145 (prostate cancer); assay: MTT cell proliferation test, DU-145 cells; type: cell-based, human; settings: for susceptibility of the cell line to inhibition, in words: DU-145, relative to the other cell lines
Protocol: as §1

SMILES: C=C(C)[C@@H]1CCC(C)=C[C@H]1C1=C(O)C(=O)C(CCCCC)=CC1=O [HU-331, 3S,4R-p-benzoquinone-3-hydroxy-2-p-mentha-(1,8)-dien-3-yl-5-pentyl]
- concentration giving 50% inhibition of growth ([1]; Jurkat lymphoma, MTT, three days): 0.2 µg/mL
- inhibition of Jurkat cell growth ([1]; at 0.2 μg/ml): about 50%
- inhibition of Jurkat cell growth ([1]; at 1.56 μg/ml): over 80%
- susceptibility of the cell line to inhibition, in words ([2]; MCF-7, relative to the other cell lines): most susceptible
- concentration required for 50% inhibition of growth ([2]; MCF-7 mammary cancer, MTT, three days): 3.125 µg/mL
- inhibition of MCF-7 cell growth ([2]; at 3.125 μg/ml): about 50%
- growth inhibition of human cancer cell lines in vitro, in words [3]: exerted an inhibitory effect on the in vitro growth of all seven human cancer cell lines tested
- concentration giving 50% inhibition of growth ([4]; Raji lymphoma, MTT, three days): 0.2 µg/mL
- inhibition of Raji cell growth ([4]; at 0.2 μg/ml): about 50%
- inhibition of Raji cell growth ([4]; at 1.56 μg/ml): over 80%
- tumor size versus controls ([5]; i.p. 5 mg/kg 3 times per week from day 2, at 35 days after cancer cell injection, p<0.0029): half the size of the tumors in controls
- tumor size versus vehicle-treated control mice ([5]; i.p. 5 mg/kg 3 times per week from day 2, starting at 25 days after cancer cells injection, p<0.05): significantly smaller
- tumor size versus controls ([5]; intra-tumoral from day 14 (Group 1), from day 31 onwards, not significant until day 45): smaller than in controls
- tumor size versus control mice ([5]; intra-tumoral from day 14 (Group 1), starting at day 45 after cell injection, p<0.05): significantly smaller
- tumor size versus control mice ([5]; s.c. in the region of the graft from day 2 (Group 2), at days 17-25 and until day 59, p<0.05): significantly smaller
- weight loss and observable adverse effects [6]: did not cause either weight loss or any observable adverse effects
- susceptibility of the cell line to inhibition, in words ([7]; HT-29, relative to the other cell lines): most susceptible
- concentration required for 50% inhibition of growth ([7]; HT-29 colon cancer, MTT, three days): 3.125 µg/mL
- inhibition of HT-29 cell growth ([7]; at 3.125 μg/ml): about 50%
- HT-29 cancer cells killed ([7]; at 5 μg/ml in vitro): about 50%

SMILES: CCCCCC1=CC(=O)C2=C(OC(C)(C)[C@@H]3CC=C(C)C[C@@H]23)C1=O [HU-336, 6aR,10aR-1-H-dibenzo[b,d]pyran-1,4-(6H)-dione-6aβ,7,10,10aα-tetrahydro-6,6,9-trimethyl-3-pentyl]
- susceptibility of the cell line to inhibition, in words [8]: most susceptible
- concentration at which growth was inhibited ([8]; SNB-19 cells, inhibited only at this concentration): 100 µg/mL
- growth inhibition of human cancer cell lines in vitro, in words [3]: weakest capacity to inhibit the growth of human cancer cell lines in vitro
- concentration at which all cell lines tested were inhibited [3]: over 12.5 μg/ml
- inhibition of growth of all the cells tested ([3]; at 12.5 μg/ml or higher): ≥ 50%
- susceptibility of the cell line to inhibition, in words [9]: most susceptible

SMILES: CCCCCC1=CC(=O)C2=C(OC(C)(C)c3ccc(C)cc32)C1=O [HU-345, 1-H-dibenzo[b,d]pyran-1,4(6H)-dione-6,6,9-trimethyl-3-pentyl]
- susceptibility of the cell line to inhibition, in words [8]: most susceptible
- concentration at which growth was inhibited ([1]; Jurkat cells): 12.5 µg/mL and 12.5 to 25.0 µg/mL
- concentration at which all cell lines tested were inhibited [3]: 25.0 µg/mL and 12.5 to 25.0 µg/mL
- inhibition at 6.25 µg/mL ([4]; Homo sapiens, Raji, read-out: inhibition of Raji cell growth): > 50%
- inhibition of Raji cell growth, comparison in words ([4]; MTT): more effectively than that of the other cell lines tested
- susceptibility of the cell line to inhibition, in words [9]: most susceptible
- concentration at which growth was inhibited ([9]; DU-145 prostate cancer cells): 12.5 µg/mL

SMILES: CCCCCC1=CC(=O)C([C@@H]2C=C(C)CC[C@H]2C(C)C)=C(O)C1=O [HU-395, 3S,4R-p-benzoquinone-3-hydroxy-2-[p-mentha-1-en-3-yl]-5-pentyl]
- inhibition at 0.2 µg/mL ([1]; Homo sapiens, Jurkat, at 0.2 μg/ml, read-out: inhibition of Jurkat cell growth): ~60%
- inhibition of Jurkat cell proliferation, comparison in words ([1]; MTT): at least to the same extent as HU-331

SMILES: CCCCCC1=CC(=O)C([C@@H]2CC(C)CC[C@H]2C(C)C)=C(O)C1=O (stereo partly drawn) [HU-396, 3S,4R-p-benzoquinone-3-hydroxy-2-[p-menthan-3-yl]-5-pentyl]
- inhibition of Jurkat cell proliferation, comparison in words ([1]; MTT): less effectively than HU-395 and HU-331
- Jurkat cancer cells killed ([1]; at 0.39 μg/ml): about 40%
- Jurkat cancer cells killed ([1]; at 0.78 μg/ml): about 60%
